Test results as given in ChEMBL document CHEMBL3885861, “Open TG-GATES”.

Species on record: Rattus norvegicus
Assay: Open TG-GATES - Regimen: Daily Repeat
Type: toxicity, organism-based, Sprague-Dawley
Set-up: regimen Daily Repeat, gender Male, age 6 weeks
Settings: in vivo, po, route gavage; for gamma-GTP / ALP / ALT / AST / BUN / CRE / Ca / Cl / DBIL / GLC / IP / K / LDH / Na / PL / RALB / TBIL / TC / TG / TP: tissue Plasma; for APTT / Bas / Eos / Fbg / Ht / Lym / MCH / MCHC / MCV / Mono / Neu / PT / Plat / RBC / Ret / WBC: tissue Blood; for KIDNEY_L / KIDNEY_R / KIDNEY_TOTAL: tissue Kidney; for LIVER: tissue Liver
[1] = 100 mg/kg, 72 h, dose level High, time 3 day
[2] = 100 mg/kg, […], dose level High, time 7 day
[3] = 100 mg/kg, […], dose level High, time 14 day
[4] = 100 mg/kg, […], dose level High, time 28 day

## Cc1cccc(Nc2cc(Cl)nc(SCC(=O)O)n2)c1C [PIRINIXIC ACID]
30 mg/kg, […], dose level Middle, time 28 day
  gamma-GTP: 1.2 IU/L
[1]
  TERMINAL_BW: 236.1 g
  APTT: 16.4 s
  Bas: 0%
  Eos: 1%
  Fbg: 210.2 mg/dL
  Ht: 39.4%
  Lym: 73.4%
  MCH: 21.2 pg
  MCHC: 34%
  MCV: 62.5 fL
  Mono: 3%
  Neu: 22%
  PT: 12.2 s
  Plat: 112.9 x10_4/uL
  RBC: 630.2 x10_4/ul
  Ret: 5.7%
  WBC: 78.7 x10_2/uL
  KIDNEY_L: 1.1 g
  KIDNEY_R: 1.1 g
  KIDNEY_TOTAL: 2.1 g
  LIVER: 16.9 g
  ALP: 1976.4 IU/L
  ALT: 70.6 IU/L
  AST: 103.4 IU/L
  BUN: 15.8 mg/dL
  CRE: 0.2 mg/dL
  Ca: 10.8 mg/dL
  Cl: 105.2 meq/L
  DBIL: 0.022 mg/dL
  GLC: 192.2 mg/dL
  IP: 7.3 mg/dL
  K: 4.1 meq/L
  LDH: 189.6 IU/L
  Na: 144 meq/L
  PL: 116 mg/dL
  RALB: 2.7 g/dL
  TBIL: 0.028 mg/dL
  TC: 59 mg/dL
  TG: 34 mg/dL
  TP: 5.4 g/dL
  gamma-GTP: 1 IU/L
[2]
  TERMINAL_BW: 275.8 g
  APTT: 15.4 s
  Bas: 0%
  Eos: 0.8%
  Fbg: 225 mg/dL
  Ht: 36.2%
  Lym: 76.6%
  MCH: 21.4 pg
  MCHC: 34.3%
  MCV: 62.4 fL
  Mono: 3.2%
  Neu: 19%
  PT: 12.5 s
  Plat: 129.5 x10_4/uL
  RBC: 580.4 x10_4/ul
  Ret: 5.9%
  WBC: 116.4 x10_2/uL
  KIDNEY_L: 1.2 g
  KIDNEY_R: 1.2 g
  KIDNEY_TOTAL: 2.3 g
  LIVER: 24.1 g
  ALP: 1688.2 IU/L
  ALT: 46.4 IU/L
  AST: 66.4 IU/L
  BUN: 18.8 mg/dL
  CRE: 0.2 mg/dL
  Ca: 11.3 mg/dL
  Cl: 102.8 meq/L
  DBIL: 0.014 mg/dL
  GLC: 201.8 mg/dL
  IP: 7.4 mg/dL
  K: 4 meq/L
  LDH: 142 IU/L
  Na: 142 meq/L
  PL: 143 mg/dL
  RALB: 3 g/dL
  TBIL: 0.026 mg/dL
  TC: 69.4 mg/dL
  TG: 52 mg/dL
  TP: 6.1 g/dL
  gamma-GTP: 0.6 IU/L
[3]
  TERMINAL_BW: 297.8 g
  APTT: 17.3 s
  Bas: 0%
  Eos: 0.8%
  Fbg: 207 mg/dL
  Ht: 38.8%
  Lym: 75.4%
  MCH: 20.3 pg
  MCHC: 34.6%
  MCV: 58.7 fL
  Mono: 3.6%
  Neu: 19.4%
  PT: 12.9 s
  Plat: 121.9 x10_4/uL
  RBC: 661.2 x10_4/ul
  Ret: 4.3%
  WBC: 147.9 x10_2/uL
  KIDNEY_L: 1.3 g
  KIDNEY_R: 1.3 g
  KIDNEY_TOTAL: 2.6 g
  LIVER: 26.1 g
  ALP: 1872.4 IU/L
  ALT: 49.6 IU/L
  AST: 75 IU/L
  BUN: 19.4 mg/dL
  CRE: 0.2 mg/dL
  Ca: 10.4 mg/dL
  Cl: 102.8 meq/L
  DBIL: 0.022 mg/dL
  GLC: 189.6 mg/dL
  IP: 7.1 mg/dL
  K: 3.8 meq/L
  LDH: 141 IU/L
  Na: 141.8 meq/L
  PL: 149.6 mg/dL
  RALB: 2.9 g/dL
  TBIL: 0.032 mg/dL
  TC: 74.8 mg/dL
  TG: 44.4 mg/dL
  TP: 6.1 g/dL
  gamma-GTP: 1.2 IU/L
[4]
  TERMINAL_BW: 351.6 g
  APTT: 16.6 s
  Bas: 0%
  Eos: 1.2%
  Fbg: 216.6 mg/dL
  Ht: 39.4%
  Lym: 74.2%
  MCH: 18.8 pg
  MCHC: 35%
  MCV: 53.7 fL
  Mono: 4%
  Neu: 19.6%
  PT: 12.4 s
  RBC: 734.2 x10_4/ul
  Ret: 2.5%
  WBC: 118.8 x10_2/uL
  KIDNEY_L: 1.6 g
  KIDNEY_R: 1.6 g
  KIDNEY_TOTAL: 3.1 g
  LIVER: 30.8 g
  ALP: 1888.4 IU/L
  ALT: 41.8 IU/L
  AST: 65.8 IU/L
  BUN: 17.2 mg/dL
  CRE: 0.2 mg/dL
  Ca: 10.8 mg/dL
  Cl: 102.2 meq/L
  DBIL: 0.008 mg/dL
  GLC: 189.2 mg/dL
  IP: 7.6 mg/dL
  K: 3.7 meq/L
  LDH: 109 IU/L
  Na: 141.8 meq/L
  PL: 147.4 mg/dL
  RALB: 3 g/dL
  TBIL: 0.048 mg/dL
  TC: 80 mg/dL
  TG: 43.6 mg/dL
  TP: 6.6 g/dL
  gamma-GTP: 1 IU/L
